MIC data for 11 molecules are collected here from ChEMBL document CHEMBL4393657, “Tetrazole hybrids and their antifungal activities” (2019).

Holding throughout (type): functional
One assay concerns Candida parapsilosis. Briefly: Antifungal activity against Candida parapsilosis ATCC 22019 assessed as reduction in fungal cell growth incubated for 48 hrs by broth microdilution method. The following applies: Lodderomyces parapsilosis, ATCC 22019, 48 h.
In another assay the test system is Cryptococcus neoformans. Description: Antifungal activity against Cryptococcus neoformans LA314 assessed as reduction in fungal cell growth incubated for 48 hrs by broth microdilution method. The following applies: LA314, 48 h. In general terms: Broth dilution looks for growth in wells or tubes with falling amounts of substance.
The next assay deals with Aspergillus niger. Description: Antifungal activity against Aspergillus niger assessed as reduction in fungal cell growth incubated for 72 hrs by broth microdilution method.
The next assay has as its system Nakaseomyces glabratus. Briefly: Antifungal activity against Candida glabrata assessed as reduction in fungal cell growth incubated for 48 hrs by broth microdilution method.
A further assay has as its system Pichia kudriavzevii. Briefly: Antifungal activity against Candida krusei assessed as reduction in fungal cell growth incubated for 48 hrs by broth microdilution method.
A further assay deals with Candida tropicalis. Description: Antifungal activity against Candida tropicalis assessed as reduction in fungal cell growth incubated for 48 hrs by broth microdilution method.
A further assay concerns Candida albicans. Description: Antifungal activity against Candida albicans assessed as reduction in fungal cell growth incubated for 48 hrs by broth microdilution method.

In brackets after ≈: the same amount, converted by molar mass.

With `CC(n1nnc(CCN2CCN(c3ccccc3Cl)CC2)n1)C(O)(Cn1cncn1)c1ccc(F)cc1F` (configuration not stated), the MIC with Candida parapsilosis, with Cryptococcus neoformans, in the assay with Aspergillus niger, in the assay on Nakaseomyces glabratus, in the assay with Pichia kudriavzevii and in the assay on Candida tropicalis was 1 to 16 µg/mL (≈ 1.84 to 29.4 µM) throughout. Moreover, in the assay with Candida albicans, the minimal inhibitory concentration (MIC) (usually the least concentration at which growth counts as inhibited) lay within 1 to 16 µg/mL (≈ 1.84 to 29.4 µM).

Regarding `CC(n1nnnc1CCN1CCN(Cc2ccccc2)CC1)C(O)(Cn1cncn1)c1ccc(F)cc1F` (configuration not stated), the MIC with Candida parapsilosis, in the assay with Cryptococcus neoformans, in the assay with Aspergillus niger, in the assay with Nakaseomyces glabratus, in the assay on Pichia kudriavzevii and in the assay on Candida tropicalis was 0.5 to 16 µg/mL (≈ 0.955 to 30.6 µM) throughout. For the same molecule, the MIC in the assay with Candida albicans was in the range of 0.5 to 16 µg/mL (≈ 0.955 to 30.6 µM).

As to `OC(Cn1cncn1)(Cn1nnc(CCN2CCN(c3cccc(C(F)(F)F)c3)CC2)n1)c1ccc(F)cc1F` (configuration not stated), the MIC with Candida parapsilosis, in the assay on Cryptococcus neoformans, in the assay with Aspergillus niger, with Nakaseomyces glabratus, in the assay on Pichia kudriavzevii and in the assay on Candida tropicalis was 1 to 16 µg/mL (≈ 1.77 to 28.4 µM) each time. In addition, the MIC with Candida albicans was in the range of 1 to 16 µg/mL (≈ 1.77 to 28.4 µM).

For `OC(Cn1cncn1)(Cn1nnc(CCN2CCN(c3ccccc3Cl)CC2)n1)c1ccc(F)cc1F` (configuration not stated), the MIC in the assay with Candida parapsilosis, in the assay with Cryptococcus neoformans, with Aspergillus niger, with Nakaseomyces glabratus, in the assay on Pichia kudriavzevii and with Candida tropicalis was 1 to 16 µg/mL (≈ 1.89 to 30.2 µM) throughout. Moreover, in the assay on Candida albicans, the MIC fell in the range of 1 to 16 µg/mL (≈ 1.89 to 30.2 µM).

Take `C[C@H](n1nnnc1CCN1CCN(Cc2ccccc2)CC1)[C@](O)(Cn1cncn1)c1ccc(F)cc1F`: the MIC in the assay with Candida parapsilosis, with Cryptococcus neoformans, in the assay with Aspergillus niger, in the assay with Nakaseomyces glabratus, in the assay with Pichia kudriavzevii and with Candida tropicalis was 0.12 to 16 µg/mL (≈ 0.229 to 30.6 µM) each time. The MIC with Candida albicans lay in the range of 0.12 to 16 µg/mL (≈ 0.229 to 30.6 µM).

With `OC(Cn1cncn1)(Cn1nnnc1CCN1CCN(c2cccc(Cl)c2)CC1)c1ccc(F)cc1F` (configuration not stated), the MIC in the assay on Candida parapsilosis, in the assay with Cryptococcus neoformans, in the assay on Aspergillus niger, in the assay with Nakaseomyces glabratus, with Pichia kudriavzevii and in the assay on Candida tropicalis was 0.5 to 16 µg/mL (≈ 0.943 to 30.2 µM) each time. In addition, the MIC in the assay with Candida albicans lay within 0.5 to 16 µg/mL (≈ 0.943 to 30.2 µM).

Turning to `OC(Cn1cncn1)(Cn1nnnc1CCN1CCN(c2ccc(Cc3ccccc3)cc2)CC1)c1ccc(F)cc1F` (configuration not stated), the MIC in the assay with Candida parapsilosis, in the assay with Cryptococcus neoformans, in the assay on Aspergillus niger, in the assay with Nakaseomyces glabratus, in the assay on Pichia kudriavzevii and with Candida tropicalis was 0.5 to 16 µg/mL (≈ 0.854 to 27.3 µM) each time. In addition, the MIC with Candida albicans lay within 0.5 to 16 µg/mL (≈ 0.854 to 27.3 µM).

In the case of `CC(n1nnnc1CCN1CCN(c2ccc([N+](=O)[O-])cc2)CC1)C(O)(Cn1cncn1)c1ccc(F)cc1F` (configuration not stated), the MIC in the assay with Candida parapsilosis, in the assay on Cryptococcus neoformans, in the assay on Aspergillus niger, in the assay on Nakaseomyces glabratus, in the assay with Pichia kudriavzevii and in the assay on Candida tropicalis was 0.5 to 16 µg/mL (≈ 0.902 to 28.9 µM) throughout. Further, in the assay with Candida albicans, the MIC lay in the range of 0.5 to 16 µg/mL (≈ 0.902 to 28.9 µM).

Take `CC(n1nnnc1CCN1CCN(c2ccccn2)CC1)C(O)(Cn1cncn1)c1ccc(F)cc1F` (configuration not stated): the MIC in the assay on Candida parapsilosis, with Cryptococcus neoformans, with Aspergillus niger, in the assay on Nakaseomyces glabratus, with Pichia kudriavzevii and in the assay with Candida tropicalis was 0.5 to 16 µg/mL (≈ 0.979 to 31.3 µM) throughout. In addition, in the assay with Candida albicans, the MIC lay within 0.5 to 16 µg/mL (≈ 0.979 to 31.3 µM).

As to `C[C@H](n1nnc(CCN2CCN(Cc3ccccc3)CC2)n1)[C@](O)(Cn1cncn1)c1ccc(F)cc1F`, the MIC with Candida parapsilosis, in the assay on Cryptococcus neoformans, in the assay with Aspergillus niger, with Nakaseomyces glabratus, in the assay on Pichia kudriavzevii and in the assay on Candida tropicalis was 0.25 to 16 µg/mL (≈ 0.477 to 30.6 µM) throughout. Besides, the MIC with Candida albicans is 0.25 to 16 µg/mL (≈ 0.477 to 30.6 µM).

Regarding `C[C@H](n1nnnc1CCN1CCN(C(c2ccccc2)c2ccccc2)CC1)[C@](O)(Cn1cncn1)c1ccc(F)cc1F`, the MIC in the assay on Candida parapsilosis, in the assay on Cryptococcus neoformans, in the assay on Aspergillus niger, in the assay with Nakaseomyces glabratus, in the assay on Pichia kudriavzevii and with Candida tropicalis was 0.12 to 16 µg/mL (≈ 0.2 to 26.7 µM) throughout. The MIC in the assay with Candida albicans was 0.12 to 16 µg/mL (≈ 0.2 to 26.7 µM).
